{"source": "paper PMC3417054", "about": "(Cell host & microbe, 2010)", "key": {"[1]": {"target": "T1, FPR2/ALX-transfected HL60 (Homo sapiens, UniProt P25090)", "T1 sequence (P25090 1-351)": "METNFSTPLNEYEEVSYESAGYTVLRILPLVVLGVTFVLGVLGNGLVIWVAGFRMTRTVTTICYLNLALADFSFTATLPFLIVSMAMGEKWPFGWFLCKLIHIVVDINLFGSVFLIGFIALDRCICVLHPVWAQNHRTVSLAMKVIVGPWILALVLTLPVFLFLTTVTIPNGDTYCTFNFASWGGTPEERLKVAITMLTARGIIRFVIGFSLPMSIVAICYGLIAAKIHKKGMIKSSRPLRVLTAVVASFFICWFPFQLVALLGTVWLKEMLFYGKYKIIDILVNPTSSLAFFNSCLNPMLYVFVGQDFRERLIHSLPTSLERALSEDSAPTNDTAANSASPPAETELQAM", "assay": "Ca2+ flux in FPR2/ALX-transfected HL60 cells", "format": "cell-based"}, "human neutrophils [2]": {"target": "T2, human neutrophils (Homo sapiens, UniProt P25090)", "T2 sequence (P25090 1-351)": "T1 sequence (P25090 1-351)", "assay": "Ca2+ flux in human neutrophils", "format": "cell-based", "details": "37°C; for pEC50, calcium ion flux: human neutrophils, Fluo-3-AM, flow cytometry, means +/- SD of at least three independent experiments, nonlinear regression, 11-18 points"}, "FPR1-transfected HL60": {"tested_on": "FPR1-transfected HL60", "assay": "Ca2+ flux in FPR1-transfected HL60 cells", "format": "cell-based, human", "details": "62.5-500 nM formylated PSMs, 2 µM non-formylated PSMs; fMLF 20 nM"}, "[3]": {"tested_on": "mice, cows, pigs, dogs, and cats", "details": "ref Styrt, 1989; cited from earlier work"}, "mouse neutrophils": {"tested_on": "mouse neutrophils", "assay": "Ca2+ flux in mouse neutrophils", "format": "cell-based", "details": "calcium flux"}, "[4]": {"tested_on": "peritoneal granulocyte infiltration, S. aureus USA300", "assay": "Mouse peritonitis model, S. aureus USA300", "format": "in vivo", "details": "WRW4 prior to infection, two-hours infection period"}, "human FPR2/ALX": {"tested_on": "human FPR2/ALX", "details": "ref Karlsson et al., 2006; Onnheim et al., 2008; cited from earlier work"}, "[5]": {"tested_on": "mouse FPR paralog (Fpr-rs2)", "details": "ref Karlsson et al., 2006; Onnheim et al., 2008; cited from earlier work"}, "human neutrophils [6]": {"target": "T2, human neutrophils", "assay": "Neutrophil chemotaxis", "format": "cell-based", "details": "3-µm trans-well filter, fluorescence-labeled neutrophils"}}, "note": "Entries after “also recorded” stand apart in the source; their conditions may differ."}
{"compound": "CC[C@H](C)[C@H](NC(=O)[C@H](Cc1c[nH]c2ccccc12)NC(=O)[C@H](CCCCN)NC(=O)[C@@H](NC(=O)[C@H](CC(C)C)NC(=O)[C@H](CC(=O)O)NC(=O)[C@H](CO)NC(=O)[C@@H](NC(=O)[C@@H](NC(=O)[C@H](CO)NC(=O)[C@@H](NC(=O)[C@@H](NC(=O)[C@H](CC(=O)O)NC(=O)[C@H](CCC(N)=O)NC(=O)[C@H](C)NC(=O)[C@@H](N)CCSC)[C@@H](C)CC)[C@@H](C)CC)[C@@H](C)O)[C@@H](C)CC)C(C)C)C(=O)N[C@H](C(=O)N[C@@H](CC(=O)O)C(=O)N[C@H](C(=O)N[C@H](C(=O)N[C@@H](CC(N)=O)C(=O)N[C@@H](CCCCN)C(=O)N[C@@H](Cc1ccccc1)C(=O)N[C@H](C(=O)N[C@@H](CCCCN)C(=O)N[C@@H](CCCCN)C(=O)O)[C@@H](C)O)C(C)C)[C@@H](C)O)[C@@H](C)CC", "note": "[δ-Toxin, non-formylated]", "values": [{"measurement": "EC50", "setting": "[1]", "result": 479, "unit": "nM"}, {"measurement": "pEC50, calcium ion flux", "setting": "human neutrophils [2]", "result": "5.20 ± 0.14"}]}
{"compound": "LESIFRSLLFRVM-NH2 [MMK1]", "values": [{"measurement": "calcium flux activation of FPR2/ALX-transfected HL60", "setting": "[1]; 62.5 nM (formylated PSMα3), 125 nM (formylated PSMα2), 250 nM (formylated δ-toxin, PSM-mec), 500 nM (formylated PSMsα1, α4, β1, β2), 2 µM (non-formylated PSMs), MMK1 10 nM", "result": "responded"}]}
{"compound": "pertussis toxin", "values": [{"measurement": "effect of pertussis toxin on PSM-induced calcium flux", "setting": "human neutrophils [2]; PTX 1 µg/ml, three hours, 5% CO2", "result": "sensitive; also recorded: blocked"}]}
{"compound": "CSCC[C@H](N)C(=O)N[C@@H](CCC(=O)O)C(=O)N[C@@H](Cc1ccccc1)C(=O)N[C@H](C(=O)N[C@@H](C)C(=O)N[C@@H](CCCCN)C(=O)N[C@@H](CC(C)C)C(=O)N[C@@H](Cc1ccccc1)C(=O)N[C@@H](CCCCN)C(=O)N[C@@H](Cc1ccccc1)C(=O)N[C@@H](Cc1ccccc1)C(=O)N[C@@H](CCCCN)C(=O)N[C@@H](CC(=O)O)C(=O)N[C@@H](CC(C)C)C(=O)N[C@@H](CC(C)C)C(=O)NCC(=O)N[C@@H](CCCCN)C(=O)N[C@@H](Cc1ccccc1)C(=O)N[C@@H](CC(C)C)C(=O)NCC(=O)N[C@@H](CC(N)=O)C(=O)N[C@@H](CC(N)=O)C(=O)O)C(C)C", "note": "[PSMα3, non-formylated]", "values": [{"measurement": "EC50", "setting": "[1]", "result": 257, "unit": "nM"}, {"measurement": "pEC50, calcium ion flux", "setting": "human neutrophils [2]", "result": "5.19 ± 0.24"}]}
{"compound": "fMLF", "values": [{"measurement": "calcium flux activation of FPR1-transfected HL60", "setting": "FPR1-transfected HL60", "result": "responded"}, {"measurement": "response to fMLF", "setting": "[3]", "result": "hardly respond"}]}
{"compound": "WRWWWW-NH2 [WRW4]", "values": [{"measurement": "effect of WRW4 on mouse neutrophil stimulation by fMLF", "setting": "mouse neutrophils; fMLF 500 nM", "result": "not affected"}, {"measurement": "effect of WRW4 on mouse neutrophil stimulation by MMK1 and PSMs", "setting": "mouse neutrophils; formylated PSMα3 250 nM, PSMα2 12.5 nM, δ-toxin 50 nM, MMK1 500 nM", "result": "potent antagonistic effect; also recorded: blocks"}, {"measurement": "effect on numbers of live bacteria", "setting": "[4]", "result": "no impact"}, {"measurement": "inhibition of human FPR2/ALX", "setting": "human FPR2/ALX", "result": "an inhibitor of human FPR2/ALX"}, {"measurement": "inhibition of mouse FPR paralog Fpr-rs2", "setting": "[5]", "result": "inhibitor"}]}
{"compound": "MDFTGVITSIIDLIKTCIQAFG [PSM-mec, formylated]", "values": [{"measurement": "chemotaxis of human neutrophils", "setting": "human neutrophils [6]", "result": "induce chemotaxis"}]}
